Assay results taken from ChEMBL document CHEMBL3885881, “DrugMatrix”.

Organism: Rattus norvegicus
Assay: DrugMatrix - Regimen: Daily Repeat
Assay type: toxicity, organism-based, Sprague-Dawley
Design: regimen Daily Repeat, gender Male, age 6-8 weeks
Conditions: in vivo, po, route oral GAVAGE, […]; for ABSOLUTE BASOPHIL / ABSOLUTE EOSINOPHIL / ABSOLUTE LYMPHOCYTE / ABSOLUTE MONOCYTE / ABSOLUTE SEGMENTED NEUTROPHIL / BASOPHIL / EOSINOPHIL / ERYTHROCYTE COUNT / HEMATOCRIT / HEMOGLOBIN / LEUKOCYTE COUNT / LYMPHOCYTE / MEAN CORPUSCULAR HEMOGLOBIN / MEAN CORPUSCULAR HEMOGLOBIN CONCENTRATION / MEAN CORPUSCULAR VOLUME / MONOCYTE / NEUTROPHIL / NUCLEATED RED BLOOD CELLS / PLATELET COUNT: tissue Blood; for ALANINE AMINOTRANSFERASE / ALBUMIN / ALKALINE PHOSPHATASE / ASPARTATE AMINOTRANSFERASE / BLOOD UREA NITROGEN / CARBON DIOXIDE / CHLORIDE / CHOLESTEROL / CREATINE PHOSPHOKINASE / CREATININE / GLUCOSE / LACTATE DEHYDROGENASE / LIPASE / PHOSPHORUS / POTASSIUM / SODIUM / TOTAL BILIRUBIN / TOTAL PROTEIN / URIC ACID: tissue Plasma
[1] = 30 mg/kg, 120 h, dose level Low, time 5 day
[2] = 1093 mg/kg, 72 h, dose level High, time 3 day
[3] = 1093 mg/kg, 120 h, dose level High, time 5 day

CCC(C)n1ncn(-c2ccc(N3CCN(c4ccc(OCC5COC(Cn6cncn6)(c6ccc(Cl)cc6Cl)O5)cc4)CC3)cc2)c1=O (centres undefined) [ITRACONAZOLE]
ABSOLUTE BASOPHIL [1]: 0 CELLS/uL
ABSOLUTE EOSINOPHIL [1]: 154 CELLS/uL
ABSOLUTE LYMPHOCYTE [1]: 10619.33 CELLS/uL
ABSOLUTE MONOCYTE [1]: 425.67 CELLS/uL
ABSOLUTE SEGMENTED NEUTROPHIL [1]: 634.33 CELLS/uL
BASOPHIL [1]: 0%
EOSINOPHIL [1]: 1.33%
ERYTHROCYTE COUNT [1]: 5.97 x10E6/uL
HEMATOCRIT [1]: 38.27%
HEMOGLOBIN [1]: 14.43 G/DL
LEUKOCYTE COUNT [1]: 11.83 x10E3/uL
LYMPHOCYTE [1]: 89.67%
MEAN CORPUSCULAR HEMOGLOBIN [1]: 24.2 pg
MEAN CORPUSCULAR HEMOGLOBIN CONCENTRATION [1]: 37.77 G/DL
MEAN CORPUSCULAR VOLUME [1]: 64.1 fL
MONOCYTE [1]: 3.67%
NEUTROPHIL [1]: 5.33%
NUCLEATED RED BLOOD CELLS [1]: 0 /100WBC
PLATELET COUNT [1]: 1278.33 x10E3/uL
ALANINE AMINOTRANSFERASE [1]: 59.67 u/L
ALBUMIN [1]: 4.03 G/DL
ALKALINE PHOSPHATASE [1]: 472.33 u/L
ASPARTATE AMINOTRANSFERASE [1]: 77 u/L
BLOOD UREA NITROGEN [1]: 9 mg/dL
CARBON DIOXIDE [1]: 23.67 mmol/L
CHLORIDE [1]: 102.67 MEQ/L
CHOLESTEROL [1]: 50.33 mg/dL
CREATINE PHOSPHOKINASE [1]: 199.67 u/L
CREATININE [1]: 0.12 mg/dL
GLUCOSE [1]: 162.67 mg/dL
LACTATE DEHYDROGENASE [1]: 92.67 u/L
LIPASE [1]: 6.33 u/L
PHOSPHORUS [1]: 11.77 mg/dL
POTASSIUM [1]: 6.35 MEQ/L
SODIUM [1]: 142.93 MEQ/L
TOTAL BILIRUBIN [1]: 0.13 mg/dL
TOTAL PROTEIN [1]: 5.97 G/DL
URIC ACID [1]: 1.6 mg/dL
ABSOLUTE BASOPHIL [2]: 0 CELLS/uL
ABSOLUTE EOSINOPHIL [2]: 143 CELLS/uL
ABSOLUTE LYMPHOCYTE [2]: 12564.33 CELLS/uL
ABSOLUTE MONOCYTE [2]: 467.67 CELLS/uL
ABSOLUTE SEGMENTED NEUTROPHIL [2]: 825 CELLS/uL
BASOPHIL [2]: 0%
EOSINOPHIL [2]: 1%
ERYTHROCYTE COUNT [2]: 6.06 x10E6/uL
HEMATOCRIT [2]: 38.43%
HEMOGLOBIN [2]: 14.67 G/DL
LEUKOCYTE COUNT [2]: 14 x10E3/uL
LYMPHOCYTE [2]: 89.67%
MEAN CORPUSCULAR HEMOGLOBIN [2]: 24.23 pg
MEAN CORPUSCULAR HEMOGLOBIN CONCENTRATION [2]: 38.17 G/DL
MEAN CORPUSCULAR VOLUME [2]: 63.43 fL
MONOCYTE [2]: 3.33%
NEUTROPHIL [2]: 6%
NUCLEATED RED BLOOD CELLS [2]: 0 /100WBC
PLATELET COUNT [2]: 1165.33 x10E3/uL
ALANINE AMINOTRANSFERASE [2]: 57 u/L
ALBUMIN [2]: 4 G/DL
ALKALINE PHOSPHATASE [2]: 535.67 u/L
ASPARTATE AMINOTRANSFERASE [2]: 71 u/L
BLOOD UREA NITROGEN [2]: 10.67 mg/dL
CARBON DIOXIDE [2]: 22.67 mmol/L
CHLORIDE [2]: 102.33 MEQ/L
CHOLESTEROL [2]: 50.33 mg/dL
CREATINE PHOSPHOKINASE [2]: 230.33 u/L
CREATININE [2]: 0.12 mg/dL
GLUCOSE [2]: 165 mg/dL
LACTATE DEHYDROGENASE [2]: 54.33 u/L
LIPASE [2]: 9.33 u/L
PHOSPHORUS [2]: 10.63 mg/dL
POTASSIUM [2]: 6.01 MEQ/L
SODIUM [2]: 142.3 MEQ/L
TOTAL BILIRUBIN [2]: 0.17 mg/dL
TOTAL PROTEIN [2]: 5.87 G/DL
URIC ACID [2]: 1.77 mg/dL
ABSOLUTE BASOPHIL [3]: 0 CELLS/uL
ABSOLUTE EOSINOPHIL [3]: 139 CELLS/uL
ABSOLUTE LYMPHOCYTE [3]: 10102.67 CELLS/uL
ABSOLUTE MONOCYTE [3]: 609.67 CELLS/uL
ABSOLUTE SEGMENTED NEUTROPHIL [3]: 1115.33 CELLS/uL
BASOPHIL [3]: 0%
EOSINOPHIL [3]: 1%
ERYTHROCYTE COUNT [3]: 5.79 x10E6/uL
HEMATOCRIT [3]: 36.73%
HEMOGLOBIN [3]: 14.13 G/DL
LEUKOCYTE COUNT [3]: 11.97 x10E3/uL
LYMPHOCYTE [3]: 84.67%
MEAN CORPUSCULAR HEMOGLOBIN [3]: 24.4 pg
MEAN CORPUSCULAR HEMOGLOBIN CONCENTRATION [3]: 38.47 G/DL
MEAN CORPUSCULAR VOLUME [3]: 63.43 fL
MONOCYTE [3]: 5%
NEUTROPHIL [3]: 9.33%
NUCLEATED RED BLOOD CELLS [3]: 0 /100WBC
PLATELET COUNT [3]: 1189.33 x10E3/uL
ALANINE AMINOTRANSFERASE [3]: 78.67 u/L
ALBUMIN [3]: 4.17 G/DL
ALKALINE PHOSPHATASE [3]: 402 u/L
ASPARTATE AMINOTRANSFERASE [3]: 84.33 u/L
BLOOD UREA NITROGEN [3]: 10.67 mg/dL
CARBON DIOXIDE [3]: 22.33 mmol/L
CHLORIDE [3]: 103.67 MEQ/L
CHOLESTEROL [3]: 67 mg/dL
CREATINE PHOSPHOKINASE [3]: 522 u/L
CREATININE [3]: 0.21 mg/dL
GLUCOSE [3]: 181 mg/dL
LACTATE DEHYDROGENASE [3]: 126 u/L
LIPASE [3]: 17.33 u/L
PHOSPHORUS [3]: 11.7 mg/dL
POTASSIUM [3]: 5.88 MEQ/L
SODIUM [3]: 143.47 MEQ/L
TOTAL BILIRUBIN [3]: 0.13 mg/dL
TOTAL PROTEIN [3]: 5.83 G/DL
URIC ACID [3]: 2 mg/dL
